Measurements reported in article PMC9154192 (PLoS Biology, 2022).
In brackets after ≈: the same amount, converted by molar mass.

How the values were obtained:
[1] = system: clinically isolated MDR, XDR, and TDR M. tuberculosis strains; assay: microbe, parasite or virus in culture; type: cell-based; settings: Mycobacterium tuberculosis
M. abscessus = assay: microbe, parasite or virus in culture; type: cell-based, Mycobacterium abscessus; settings: Mycobacteroides abscessus
M. avium = assay: microbe, parasite or virus in culture; type: cell-based; settings: Mycobacterium avium
M. bolletii = assay: microbe, parasite or virus in culture; type: cell-based, Mycobacterium bolletii; settings: Mycobacteroides abscessus
M. conceptionense = assay: microbe, parasite or virus in culture; type: cell-based, Mycobacterium conceptionense; settings: Mycolicibacterium senegalense
M. fortuitum = assay: microbe, parasite or virus in culture; type: cell-based, Mycobacterium fortuitum; settings: Mycolicibacterium fortuitum
M. gilvum = assay: microbe, parasite or virus in culture; type: cell-based, Mycobacterium gilvum; settings: Mycolicibacterium gilvum
M. marinum = assay: microbe, parasite or virus in culture; type: cell-based; settings: Mycobacterium marinum
M. peregrinum = assay: microbe, parasite or virus in culture; type: cell-based, Mycobacterium peregrinum; settings: Mycolicibacterium peregrinum
M. phlei = assay: microbe, parasite or virus in culture; type: cell-based, Mycobacterium phlei; settings: Mycolicibacterium phlei
M. phocaicum = assay: microbe, parasite or virus in culture; type: cell-based, Mycobacterium phocaicum; settings: Mycolicibacterium phocaicum
M. smegmatis = assay: microbe, parasite or virus in culture; type: cell-based, Mycobacterium smegmatis; settings: Mycolicibacterium smegmatis
M. szulgai = assay: microbe, parasite or virus in culture; type: cell-based; settings: Mycobacterium szulgai
Acinetobacter baumannii = assay: Broth dilution MIC (CLSI); type: cell-based; settings: read-out: MIC
Description: (§1) Bacteria (Acinetobacter baumannii NCCP 14782, Citrobacter freundii NCCP 14766, Enterobacter aerogenes NCCP 14761, Escherichia coli NCCP 14762, Escherichia coli O157 NCCP 14541, Klebsiella pneumoniae NCCP 14764, Proteus mirabilis NCCP 14763, Proteus vulgaris NCCP 14765, Pseudomonas aeruginosa NCCP 14781, Salmonella Enteritidis NCCP 14771, Salmonella Paratyphi A NCCP 14759, Salmonella Typhimurium NCCP 16207, Serratia marcescens NCCP 14770, Shigella boydii NCCP 14745, Shigella dysenteriae NCCP 14746, Shigella flexneri NCCP 14744, Shigella sonnei NCCP 14773, Bacillus subtilis NCCP 11101, Corynebacterium diphtheriae NCCP 10353, Staphylococcus aureus MSSA NCCP 14780, Staphylococcus aureus MRSA NCCP 14769, Staphylococcus epidermidis NCCP 14768, Streptococcus pneumoniae NCCP 14774) and fungi (Aspergillus fumigatus NCCP 22454, Candida albicans NCCP 32557, Cryptococcus neoformans NCCP 32559, Microsporum canis NCCP 22454, Rhizopus oryzae NCCP 22458, Saccharomyces cerevisiae NCCP 32558, Trichophyton rubrum NCCP 22456) strains were obtained from the National Culture Collection for Pathogens (NCCP) (Chungbuk, Korea). The MIC of each agent was determined following the Clinical and Laboratory Standards Institute (CLSI).[40]

Aspergillus fumigatus = assay: Broth dilution MIC (CLSI); type: cell-based; settings: read-out: MIC
Description: as §1

Bacillus subtilis = assay: Broth dilution MIC (CLSI); type: cell-based; settings: read-out: MIC
Description: as §1

Candida albicans = assay: Broth dilution MIC (CLSI); type: cell-based; settings: read-out: MIC
Description: as §1

Citrobacter freundii = assay: Broth dilution MIC (CLSI); type: cell-based; settings: read-out: MIC
Description: as §1

[2] = system: Corynebacterium diphtheriae; assay: Broth dilution MIC (CLSI); type: cell-based; settings: read-out: MIC
Description: as §1

Cryptococcus neoformans = assay: Broth dilution MIC (CLSI); type: cell-based; settings: read-out: MIC
Description: as §1

Enterobacter aerogenes = assay: Broth dilution MIC (CLSI); type: cell-based; settings: Klebsiella aerogenes; Enterobacter aerogenes; read-out: MIC
Description: as §1

Escherichia coli O157 = assay: Broth dilution MIC (CLSI); type: cell-based; settings: read-out: MIC
Description: as §1

Escherichia coli = assay: Broth dilution MIC (CLSI); type: cell-based; settings: read-out: MIC
Description: as §1

Klebsiella pneumoniae = assay: Broth dilution MIC (CLSI); type: cell-based; settings: read-out: MIC
Description: as §1

Microsporum canis = assay: Broth dilution MIC (CLSI); type: cell-based; settings: read-out: MIC
Description: as §1

Proteus mirabilis = assay: Broth dilution MIC (CLSI); type: cell-based; settings: read-out: MIC
Description: as §1

Proteus vulgaris = assay: Broth dilution MIC (CLSI); type: cell-based; settings: read-out: MIC
Description: as §1

Pseudomonas aeruginosa = assay: Broth dilution MIC (CLSI); type: cell-based; settings: read-out: MIC
Description: as §1

Rhizopus oryzae = assay: Broth dilution MIC (CLSI); type: cell-based; settings: Rhizopus arrhizus; Rhizopus oryzae; read-out: MIC
Description: as §1

Saccharomyces cerevisiae = assay: Broth dilution MIC (CLSI); type: cell-based; settings: read-out: MIC
Description: as §1

Salmonella Enteritidis = assay: Broth dilution MIC (CLSI); type: cell-based; settings: Salmonella enterica; Salmonella Enteritidis; read-out: MIC
Description: as §1

Salmonella Paratyphi A = assay: Broth dilution MIC (CLSI); type: cell-based; settings: Salmonella enterica; Salmonella Paratyphi A; read-out: MIC
Description: as §1

Salmonella Typhimurium = assay: Broth dilution MIC (CLSI); type: cell-based; settings: Salmonella enterica; Salmonella Typhimurium; read-out: MIC
Description: as §1

Serratia marcescens = assay: Broth dilution MIC (CLSI); type: cell-based; settings: read-out: MIC
Description: as §1

Shigella boydii = assay: Broth dilution MIC (CLSI); type: cell-based; settings: read-out: MIC
Description: as §1

Shigella dysenteriae = assay: Broth dilution MIC (CLSI); type: cell-based; settings: read-out: MIC
Description: as §1

Shigella flexneri = assay: Broth dilution MIC (CLSI); type: cell-based; settings: read-out: MIC
Description: as §1

Shigella sonnei = assay: Broth dilution MIC (CLSI); type: cell-based; settings: read-out: MIC
Description: as §1

[3] = system: Staphylococcus aureus, MRSA; assay: Broth dilution MIC (CLSI); type: cell-based; settings: read-out: MIC
Description: as §1

[4] = system: Staphylococcus aureus, MSSA; assay: Broth dilution MIC (CLSI); type: cell-based; settings: read-out: MIC
Description: as §1

[5] = system: Staphylococcus epidermidis; assay: Broth dilution MIC (CLSI); type: cell-based; settings: read-out: MIC
Description: as §1

Streptococcus pneumoniae = assay: Broth dilution MIC (CLSI); type: cell-based; settings: read-out: MIC
Description: as §1

Trichophyton rubrum = assay: Broth dilution MIC (CLSI); type: cell-based; settings: read-out: MIC
Description: as §1

Work on `COC(=O)[C@@H]1CCC(=O)N1Cc1cc2ccc(OCc3ccccc3)cc2c2cc(OC)c(OC)cc12` [PP3S, Methyl (S)-1-{[3-(Benzyloxy)-6,7-dimethoxy-9-phenanthryl]methyl}-5-oxopyrrolidine-2-carboxylate] yielded an MIC ([1]; TDR-1) of 0.8 µg/mL (≈ 1.6 µM), an MIC ([1]; TDR-2) of 1.6 µg/mL (≈ 3.2 µM) and an MIC ([1]; TDR-3) of 0.8 µg/mL (≈ 1.6 µM). It also gave an MIC (M. abscessus) of over 100 µg/mL, an MIC (M. avium) of over 100 µg/mL and an MIC (M. bolletii) of over 100 µg/mL. For the same compound, the MIC (M. conceptionense) was over 100 µg/mL, the MIC (M. fortuitum) was over 100 µg/mL and the MIC (M. gilvum) was over 100 µg/mL. For the same compound, the MIC (M. marinum) was over 100 µg/mL, the MIC (M. peregrinum) was over 100 µg/mL and the MIC (M. phlei) was over 100 µg/mL. It also gave an MIC (M. phocaicum) of over 100 µg/mL, an MIC (M. smegmatis) of over 100 µg/mL and an MIC (M. szulgai) of over 100 µg/mL. For the same compound, the MIC (Acinetobacter baumannii) was over 100 µg/mL, the MIC (Aspergillus fumigatus) was over 100 µg/mL and the MIC (Bacillus subtilis) was over 100 µg/mL. The MIC (Candida albicans) was over 100 µg/mL, the MIC (Citrobacter freundii) was over 100 µg/mL and the MIC [2] was over 100 µg/mL. For the same compound, the MIC (Cryptococcus neoformans) was over 100 µg/mL, the MIC (Enterobacter aerogenes) was over 100 µg/mL and the MIC (Escherichia coli O157) was over 100 µg/mL. It also gave an MIC (Escherichia coli) of over 100 µg/mL, an MIC (Klebsiella pneumoniae) of over 100 µg/mL and an MIC (Microsporum canis) of over 100 µg/mL. It also gave an MIC (Proteus mirabilis) of over 100 µg/mL, an MIC (Proteus vulgaris) of over 100 µg/mL and an MIC (Pseudomonas aeruginosa) of over 100 µg/mL. It also gave an MIC (Rhizopus oryzae) of over 100 µg/mL, an MIC (Saccharomyces cerevisiae) of over 100 µg/mL and an MIC (Salmonella Enteritidis) of over 100 µg/mL. It also gave an MIC (Salmonella Paratyphi A) of over 100 µg/mL, an MIC (Salmonella Typhimurium) of over 100 µg/mL and an MIC (Serratia marcescens) of over 100 µg/mL. It also gave an MIC (Shigella boydii) of over 100 µg/mL, an MIC (Shigella dysenteriae) of over 100 µg/mL and an MIC (Shigella flexneri) of over 100 µg/mL. The MIC (Shigella sonnei) was over 100 µg/mL, the MIC [3] was over 100 µg/mL and the MIC [4] was over 100 µg/mL. The MIC [5] was over 100 µg/mL, the MIC (Streptococcus pneumoniae) was over 100 µg/mL and the MIC (Trichophyton rubrum) was over 100 µg/mL.
In the case of `NNC(=O)c1ccncc1` [INH, isoniazid, reference compound], the MIC ([1]; TDR-1) is reported as 12.5 µg/mL (≈ 91.1 µM), the MIC ([1]; TDR-2) is reported as 6.3 µg/mL (≈ 45.9 µM) and the MIC ([1]; TDR-3) is reported as 12.5 µg/mL (≈ 91.1 µM). For the same compound, the MIC (M. abscessus) was over 100 µg/mL, the MIC (M. avium) was 25 µg/mL (≈ 182 µM) and the MIC (M. bolletii) was over 100 µg/mL. It also gave an MIC (M. conceptionense) of 25 µg/mL (≈ 182 µM), an MIC (M. fortuitum) of 25 µg/mL (≈ 182 µM) and an MIC (M. gilvum) of 12.5 µg/mL (≈ 91.1 µM). The MIC (M. marinum) was 25 µg/mL (≈ 182 µM), the MIC (M. peregrinum) was 6.3 µg/mL (≈ 45.9 µM) and the MIC (M. phlei) was over 100 µg/mL. For the same compound, the MIC (M. phocaicum) was over 100 µg/mL, the MIC (M. smegmatis) was 25 µg/mL (≈ 182 µM) and the MIC (M. szulgai) was 1.6 µg/mL (≈ 11.7 µM). It also gave an MIC (Acinetobacter baumannii) of over 100 µg/mL, an MIC (Aspergillus fumigatus) of over 100 µg/mL and an MIC (Bacillus subtilis) of over 100 µg/mL. For the same compound, the MIC (Candida albicans) was over 100 µg/mL, the MIC (Citrobacter freundii) was over 100 µg/mL and the MIC [2] was over 100 µg/mL. The MIC (Cryptococcus neoformans) was over 100 µg/mL, the MIC (Enterobacter aerogenes) was over 100 µg/mL and the MIC (Escherichia coli O157) was over 100 µg/mL. The MIC (Escherichia coli) was over 100 µg/mL, the MIC (Klebsiella pneumoniae) was over 100 µg/mL and the MIC (Microsporum canis) was over 100 µg/mL. The MIC (Proteus mirabilis) was over 100 µg/mL, the MIC (Proteus vulgaris) was over 100 µg/mL and the MIC (Pseudomonas aeruginosa) was over 100 µg/mL. It also gave an MIC (Rhizopus oryzae) of over 100 µg/mL, an MIC (Saccharomyces cerevisiae) of over 100 µg/mL and an MIC (Salmonella Enteritidis) of over 100 µg/mL. The MIC (Salmonella Paratyphi A) was over 100 µg/mL, the MIC (Salmonella Typhimurium) was over 100 µg/mL and the MIC (Serratia marcescens) was over 100 µg/mL. It also gave an MIC (Shigella boydii) of over 100 µg/mL, an MIC (Shigella dysenteriae) of over 100 µg/mL and an MIC (Shigella flexneri) of over 100 µg/mL. The MIC (Shigella sonnei) was over 100 µg/mL, the MIC [3] was over 100 µg/mL and the MIC [4] was over 100 µg/mL. For the same compound, the MIC [5] was over 100 µg/mL, the MIC (Streptococcus pneumoniae) was over 100 µg/mL and the MIC (Trichophyton rubrum) was over 100 µg/mL.
